Ends that are not written are not given here.
Legend:
[1] = previously reported; cited from earlier work
Description: The two “blocky” surfactant-like peptides […] and […] are both able to self-assemble in aqueous solution at concentrations in excess of critical values, obtained from fluorescence probe assays. The cac = 0.3 wt % (≡ 3.2 mM) for […] is higher than that previously obtained for the compositional homologue peptide […], for which the cac = 2.3 mM.[16]

in vitro = format: cell-based, human; conditions: human
Description: (§1) The cytotoxicity of both R3F3 and R4F4 was examined. In vitro cell culture was conducted using 161Br (European Collection of Authenticated Cell Cultures, ECACC) cells, a human skin fibroblast cell line. Cells were cultured in EMEM (Eagle’s minimum essential medium), with 2 mM glutamine, enriched with 15% fetal bovine serum (FBS) and 1% nonessential amino acids (NEAA). Cells were maintained in a humidified atmosphere of 37 °C, 5% CO2.
(§2) Potential cytotoxicity effects were examined using the MTT (3-(4,5-dimethylthiazol-2-yl)-2,5-diphenyltetrazolium bromide) assay. The peptides were dissolved in complete media. Cells were seeded into a 96-well plate at 4 × 10^4 cells/mL and allowed to adhere for 24 h in 100 μL complete medium. After this, 100 μL of either complete media and/or peptide solution was added, to give either control solution, or solutions of peptide between the concentrations of 0.0625–4 mg/mL.
(§3) Cells were incubated for 67 h. After this, 20 μL MTT (5 mg/mL, in PBS) was added to each well plate and allowed to incubate for 5 h. After a further 5 h (72 h total), the solution was removed from the wells and replaced with 100 μL of DMSO per well, which dissolves the formazan crystals. Plates were incubated for 30 min, and then analyzed using a UV microplate reader (λ = 570 nm). Results are reported as a percentage cell viability compared to control (untreated) values, and fitted to a sigmoidal function using Origin Lab as a guide to the eye.
(§4) Figure S2. CD data for a) R3F3 and b) R4F4 with DPPG (concentrations indicated) .
(§5) Figure S3. Cytotoxicity profiles from MTT assays, where 161br Human fibroblasts were exposed to
(§6) (a) R3F3 and (b) R4F4 for 72 hours. Control solutions were prepared by incubating cells with complete
(§7) media. Results are reported as a percentage compared to the control solutions. Error bars are the
(§8) standard deviation of 3 biological replicates (with 3 technical replicates pe r assay). IC50 values
(§9) (vertical blue dashed lines) were calculated in Origin using sigmoidal fits to the viability data (dashed […]

[2] = system: 161br human skin fibroblasts; experiment: in vitro; format: cell-based; conditions: 72 h, 0.05 wt %
Description: as §1, §2, §3, §4, §5, §6, §7, §8, §9

In the case of “RFRFRFRF [[RF]4, previously studied oligopeptide of alternating RF motifs, compositional homologue of R4F4]”, the “cac of compositional homologue peptide” value [1] is given as 0.34 mM.

With RRRRFFFF [R4F4] the IC50 at 72 h (in vitro) was 2.15 mM and the “viability of human skin fibroblasts” value [2] was 81%.

For “RFRFRF [previously studied alternating RF peptide, compositional homologue of R3F3]”, the “cac of compositional homologue peptide” value [1] is given as 2.3 mM.

For RRRFFF [R3F3], the IC50 at 72 h (in vitro) was 4.31 mM and the “viability of human skin fibroblasts” value [2] was 77%.

Source: PMC7147261, “Selective Antibacterial Activity and Lipid Membrane Interactions of Arginine-Rich Amphiphilic Peptides” (ACS Applied Bio Materials, 2020)
